# According to the supplement of paper PMC11061612:
# How the values were obtained:
# AZD5153 = compound: COc1nnc2ccc(N3CCC(c4ccc(OCCN5CCN(C)C(=O)[C@H]5C)cc4)CC3)nn12 [AZD5153]; settings: max 1 µM
# How it was run: (§1)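 Plates with 1536 wells received cancer cell lines in 7.5 μl of DMEM/F12 or RPMI containing 10% FBS. After 24 hours at 37°C and 5% CO2, cells were dosed for 72 hours with final DMSO typically 0.2%, and viability was read by CellTiter-Glo 2.0 luminescence scaled between blank-well and DMSO-well means. The single-agent IC50 was taken from a logistic fit of the dose responses made with a non-linear mixed effects model, that logistic curve having two parameters.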
# AZD4320 = compound: CN(CC[C@H](CSC1=CC=CC=C1)NC2=C(C=C(C=C2)S(=O)(=O)NC(=O)C3=CC=C(C=C3)N4CCC(CC4)[C@H](C5=CC=CC=C5C6=CC=C(C=C6)Cl)O)S(=O)(=O)C(F)(F)F)CCO [AZD4320]; settings: max 1 µM
# How it was run: as §1
# 5-Fluorouracil = compound: O=c1[nH]cc(F)c(=O)[nH]1 [5-Fluorouracil]; settings: max 20 µM
# How it was run: as §1
# Prexasertib = compound: COc1cccc(OCCCN)c1-c1cc(Nc2cnc(C#N)cn2)n[nH]1 [Prexasertib]; settings: max 1 µM
# How it was run: as §1
# Etoposide = compound: COc1cc([C@@H]2c3cc4c(cc3[C@@H](O[C@@H]3O[C@@H]5CO[C@@H](C)O[C@H]5[C@H](O)[C@H]3O)[C@H]3COC(=O)[C@H]23)OCO4)cc(OC)c1O [Etoposide]; settings: max 10 µM
# How it was run: as §1
# Gemcitabine = compound: Nc1ccn([C@@H]2O[C@H](CO)[C@@H](O)C2(F)F)c(=O)n1 [Gemcitabine]; settings: max 0.3 µM
# How it was run: as §1
# Carboplatin = compound: C1CC(C1)(C(=O)[O-])C(=O)[O-].N.N.[Pt+2] [Carboplatin]; settings: max 10 µM
# How it was run: as §1
# [1] = compound: O=C(Nc1ccc2[nH]nc(-c3ccncc3)c2c1)[C@@H]1CCN(CC(=O)N2CCN(c3ccc(-c4ncccn4)cc3)CC2)C1; settings: max 5 µM
# How it was run: as §1
# SG3199 = compound: CC1=CN2[C@@H](C1)C=NC3=CC(=C(C=C3C2=O)OC)OCCCCCOC4=C(C=C5C(=C4)N=C[C@@H]6CC(=CN6C5=O)C)OC [SG3199]; settings: max 0.001 µM
# How it was run: as §1
# Crizotinib = compound: C[C@@H](Oc1cc(-c2cnn(C3CCNCC3)c2)cnc1N)c1c(Cl)ccc(F)c1Cl [Crizotinib]; settings: max 10 µM
# How it was run: as §1
# Trametinib = compound: CC(=O)Nc1cccc(-n2c(=O)n(C3CC3)c(=O)c3c(Nc4ccc(I)cc4F)n(C)c(=O)c(C)c32)c1 [Trametinib]; settings: max 1 µM
# How it was run: as §1
# AZD5363 = compound: C1CN(CCC1(C(=O)N[C@@H](CCO)C2=CC=C(C=C2)Cl)N)C3=NC=NC4=C3C=CN4 [AZD5363]; settings: max 10 µM
# How it was run: as §1
# Taselisib = compound: Cc1nc(-c2cn3c(n2)-c2ccc(-c4cnn(C(C)(C)C(N)=O)c4)cc2OCC3)n(C(C)C)n1 [Taselisib]; settings: max 10 µM
# How it was run: as §1
# Alisertib = compound: COc1cc(Nc2ncc3c(n2)-c2ccc(Cl)cc2C(c2c(F)cccc2OC)=NC3)ccc1C(=O)O [Alisertib]; settings: max 10 µM
# How it was run: as §1
# AZD7648 = compound: Cc1cc2ncnn2cc1Nc1ncc2c(n1)n(C1CCOCC1)c(=O)n2C [AZD7648]; settings: max 10 µM
# How it was run: as §1
# AZD1390 = compound: CC(C)n1c(=O)n(C)c2cnc3cc(F)c(-c4ccc(OCCCN5CCCCC5)nc4)cc3c21 [AZD1390]; settings: max 0.3 µM
# How it was run: as §1
# Olaparib = compound: O=C(c1cc(Cc2n[nH]c(=O)c3ccccc23)ccc1F)N1CCN(C(=O)C2CC2)CC1 [Olaparib]; settings: max 10 µM
# How it was run: as §1
# AZD1775 = compound: C=CCn1c(=O)c2cnc(Nc3ccc(N4CCN(C)CC4)cc3)nc2n1-c1cccc(C(C)(C)O)n1 [AZD1775]; settings: max 3 µM
# How it was run: as §1
# Lapatinib = compound: CS(=O)(=O)CCNCc1ccc(-c2ccc3ncnc(Nc4ccc(OCc5cccc(F)c5)c(Cl)c4)c3c2)o1 [Lapatinib]; settings: max 10 µM
# How it was run: as §1
# AZD2811 = compound: CCN(CCO)CCCOc1ccc2c(Nc3cc(CC(=O)Nc4cccc(F)c4)[nH]n3)ncnc2c1 [AZD2811]; settings: max 1 µM
# How it was run: as §1
# Paclitaxel = compound: CC(=O)O[C@H]1C(=O)[C@@]2(C)[C@H]([C@H](OC(=O)c3ccccc3)[C@]3(O)C[C@H](OC(=O)[C@H](O)[C@@H](NC(=O)c4ccccc4)c4ccccc4)C(C)=C1C3(C)C)[C@]1(OC(C)=O)CO[C@@H]1C[C@@H]2O [Paclitaxel]; settings: max 3 µM
# How it was run: as §1
# AZD6738 = compound: C[C@@H]1COCCN1C2=NC(=NC(=C2)C3(CC3)[S@](=N)(=O)C)C4=C5C=CNC5=NC=C4 [AZD6738]; settings: max 10 µM
# How it was run: as §1
# MK-2206 = compound: NC1(c2ccc(-c3nc4ccn5c(=O)[nH]nc5c4cc3-c3ccccc3)cc2)CCC1 [MK-2206]; settings: max 10 µM
# How it was run: as §1
# Gefitinib = compound: COc1cc2ncnc(Nc3ccc(F)c(Cl)c3)c2cc1OCCCN1CCOCC1 [Gefitinib]; settings: max 10 µM
# How it was run: as §1
# AZD5991 = compound: Cc1c2c(nn1C)CSCc1cc(n(C)n1)CSc1cc(c3ccccc3c1)OCCCc1c(C(=O)O)n(C)c3c-2c(Cl)ccc13 [AZD5991]; settings: max 1 µM
# How it was run: as §1
# Doxorubicin = compound: COc1cccc2c1C(=O)c1c(O)c3c(c(O)c1C2=O)C[C@@](O)(C(=O)CO)C[C@@H]3O[C@H]1C[C@H](N)[C@H](O)[C@H](C)O1 [Doxorubicin]; settings: max 1 µM
# How it was run: as §1
# SRA737 = compound: N#Cc1cnc(Nc2cc(NC[C@H]3CNCCO3)c(C(F)(F)F)cn2)cn1 [SRA737]; settings: max 10 µM
# How it was run: as §1
# Selumetinib = compound: Cn1cnc2c(F)c(Nc3ccc(Br)cc3Cl)c(C(=O)NOCCO)cc21 [Selumetinib]; settings: max 10 µM
# How it was run: as §1
# Savolitinib = compound: C[C@@H](c1ccc2nccn2c1)n1nnc2ncc(-c3cnn(C)c3)nc21 [Savolitinib]; settings: max 1 µM
# How it was run: as §1
# Venetoclax = compound: CC1(C)CCC(CN2CCN(c3ccc(C(=O)NS(=O)(=O)c4ccc(NCC5CCOCC5)c([N+](=O)[O-])c4)c(Oc4cnc5[nH]ccc5c4)c3)CC2)=C(c2ccc(Cl)cc2)C1 [Venetoclax]; settings: max 1 µM
# How it was run: as §1
# AZD0156 = compound: CN(C)CCCOc1ccc(-c2ccc3ncc4c(c3c2)n(C2CCOCC2)c(=O)n4C)cn1 [AZD0156]; settings: max 3 µM
# How it was run: as §1
# SN-38 = compound: CCc1c2c(nc3ccc(O)cc13)-c1cc3c(c(=O)n1C2)COC(=O)[C@]3(O)CC [SN-38]; settings: max 0.3 µM
# How it was run: as §1
# Palbociclib = compound: CC(=O)c1c(C)c2cnc(Nc3ccc(N4CCNCC4)cn3)nc2n(C2CCCC2)c1=O [Palbociclib]; settings: max 10 µM
# How it was run: as §1
# AZD8186 = compound: C[C@@H](Nc1cc(F)cc(F)c1)c1cc(C(=O)N(C)C)cc2c(=O)cc(N3CCOCC3)oc12 [AZD8186]
# How it was run: as §1
# Dasatinib = compound: CC1=C(C(=CC=C1)Cl)NC(=O)C2=CN=C(S2)NC3=CC(=NC(=N3)C)N4CCN(CC4)CCO [Dasatinib]; settings: max 2 µM
# How it was run: as §1
# Capivasertib = compound: C1CN(CCC1(C(=O)N[C@@H](CCO)C2=CC=C(C=C2)Cl)N)C3=NC=NC4=C3C=CN4 [Capivasertib]; settings: max 10 µM
# How it was run: as §1
Cell Line,"IC50, cell viability 72 h (AZD5153) [nM]","IC50, cell viability 72 h (AZD4320) [nM]","IC50, cell viability 72 h (5-Fluorouracil) [nM]","IC50, cell viability 72 h (Prexasertib) [nM]","IC50, cell viability 72 h (Etoposide) [nM]","IC50, cell viability 72 h (Gemcitabine) [nM]","IC50, cell viability 72 h (Carboplatin) [nM]","IC50, cell viability 72 h [1] [nM]","IC50, cell viability 72 h (SG3199) [nM]","IC50, cell viability 72 h (Crizotinib) [nM]","IC50, cell viability 72 h (Trametinib) [nM]","IC50, cell viability 72 h (AZD5363) [nM]","IC50, cell viability 72 h (Taselisib) [nM]","IC50, cell viability 72 h (Alisertib) [nM]","IC50, cell viability 72 h (AZD7648) [nM]","IC50, cell viability 72 h (AZD1390) [nM]","IC50, cell viability 72 h (Olaparib) [nM]","IC50, cell viability 72 h (AZD1775) [nM]","IC50, cell viability 72 h (Lapatinib) [nM]","IC50, cell viability 72 h (AZD2811) [nM]","IC50, cell viability 72 h (Paclitaxel) [nM]","IC50, cell viability 72 h (AZD6738) [nM]","IC50, cell viability 72 h (MK-2206) [nM]","IC50, cell viability 72 h (Gefitinib) [nM]","IC50, cell viability 72 h (AZD5991) [nM]","IC50, cell viability 72 h (Doxorubicin) [nM]","IC50, cell viability 72 h (SRA737) [nM]","IC50, cell viability 72 h (Selumetinib) [nM]","IC50, cell viability 72 h (Savolitinib) [nM]","IC50, cell viability 72 h (Venetoclax) [nM]","IC50, cell viability 72 h (AZD0156) [nM]","IC50, cell viability 72 h (SN-38) [nM]","IC50, cell viability 72 h (Palbociclib) [nM]","IC50, cell viability 72 h (AZD8186; max 10 µM) [nM]","IC50, cell viability 72 h (Dasatinib) [nM]","IC50, cell viability 72 h (Capivasertib) [nM]","IC50, cell viability 72 h (AZD8186; max 3 µM) [nM]"
COR-L95 (Small Cell Lung Carcinoma),> 1000,7.32,> 20000,123,> 10000,> 300,> 10000,> 5000,> 1,> 10000,> 1000,> 10000,> 10000,> 10000,> 10000,> 300,> 10000,> 3000,> 10000,> 1000,> 3000,> 10000,> 10000,> 10000,> 1000,150,> 10000,> 10000,> 1000,392,> 3000,14.9,> 10000,> 10000,> 2000,,
KM-H2 (Hodgkin's Lymphoma),> 1000,> 1000,,29.1,,,,,> 1,> 10000,> 1000,,> 10000,> 10000,> 10000,> 300,> 10000,615,> 10000,> 1000,,4620,> 10000,> 10000,> 1000,534,,> 10000,> 1000,> 1000,> 3000,48.8,> 10000,,> 2000,> 10000,> 3000
NCI-H211 (Small Cell Lung Carcinoma),30.2,23.3,> 20000,,342,8.72,> 10000,> 5000,,1920,> 1000,9900,> 10000,,> 10000,> 300,3580,628,8540,19.5,< 3,5990,> 10000,> 10000,307,,> 10000,> 10000,> 1000,113,> 3000,2.31,6130,> 10000,> 2000,,
NCI-H1781 (Lung Adenocarcinoma),> 1000,> 1000,,709,,,,,> 1,> 10000,> 1000,,2110,1770,> 10000,> 300,> 10000,839,8920,583,,> 10000,,5370,> 1000,107,,> 10000,> 1000,> 1000,> 3000,5.06,> 10000,,> 2000,7070,> 3000
NCI-H1793 (Lung Adenocarcinoma),> 1000,> 1000,,938,,,,,> 1,> 10000,> 1000,,> 10000,> 10000,> 10000,> 300,> 10000,> 3000,> 10000,> 1000,,> 10000,,> 10000,> 1000,> 1000,,> 10000,> 1000,> 1000,> 3000,> 300,> 10000,,1100,> 10000,> 3000
NCI-H2369 (Mesothelioma),> 1000,> 1000,,> 1000,,,,,> 1,> 10000,> 1000,,> 10000,> 10000,> 10000,> 300,> 10000,> 3000,> 10000,> 1000,,> 10000,,> 10000,> 1000,> 1000,,> 10000,> 1000,> 1000,> 3000,> 300,> 10000,,> 2000,> 10000,> 3000
